From ChEMBL document CHEMBL5506032, “Discovery of 2,6-Naphthyridine Analogues as Selective FGFR4 Inhibitors for Hepatocellular Carcinoma” (J Med Chem, 2024)
The source made the active and inactive calls. No cut-off for these calls is given here.

Key:
Huh-7 [1] = test: Antiproliferative activity against FGFR4 overexpressing human Huh-7 cells assessed as inhibition of cell growth by SRB assay
[2] = target: T1, Fibroblast growth factor receptor 1 (Homo sapiens, UniProt P11362); test: Inhibition of FGFR1 (unknown origin) by Z'-LYTE kinase assay
Target sequence in this assay (P11362 whole entry): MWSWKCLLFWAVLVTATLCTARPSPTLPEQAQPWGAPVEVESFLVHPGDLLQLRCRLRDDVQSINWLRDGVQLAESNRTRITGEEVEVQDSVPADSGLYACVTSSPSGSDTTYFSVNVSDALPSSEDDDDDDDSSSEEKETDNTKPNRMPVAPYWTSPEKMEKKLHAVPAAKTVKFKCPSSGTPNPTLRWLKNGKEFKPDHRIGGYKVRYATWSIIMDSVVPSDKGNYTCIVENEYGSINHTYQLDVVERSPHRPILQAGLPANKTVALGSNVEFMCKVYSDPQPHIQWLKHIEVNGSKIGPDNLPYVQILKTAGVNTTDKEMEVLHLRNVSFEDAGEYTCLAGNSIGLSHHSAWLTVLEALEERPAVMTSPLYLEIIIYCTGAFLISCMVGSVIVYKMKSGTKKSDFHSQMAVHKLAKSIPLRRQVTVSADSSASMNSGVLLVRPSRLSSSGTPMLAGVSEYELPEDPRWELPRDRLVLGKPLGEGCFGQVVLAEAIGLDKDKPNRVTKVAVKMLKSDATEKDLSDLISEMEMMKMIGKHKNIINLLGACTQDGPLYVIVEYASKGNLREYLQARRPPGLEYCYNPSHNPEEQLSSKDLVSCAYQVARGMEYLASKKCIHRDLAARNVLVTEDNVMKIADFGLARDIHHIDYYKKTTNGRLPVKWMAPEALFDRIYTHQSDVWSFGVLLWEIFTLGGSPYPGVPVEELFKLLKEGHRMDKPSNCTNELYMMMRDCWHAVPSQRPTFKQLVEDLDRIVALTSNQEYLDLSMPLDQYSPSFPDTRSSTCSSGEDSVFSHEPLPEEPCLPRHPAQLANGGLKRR

[3] = target: T2, Fibroblast growth factor receptor 2 (Homo sapiens, UniProt P21802); test: Inhibition of FGFR2 (unknown origin) by Z'-LYTE kinase assay
Target sequence in this assay (P21802 whole entry): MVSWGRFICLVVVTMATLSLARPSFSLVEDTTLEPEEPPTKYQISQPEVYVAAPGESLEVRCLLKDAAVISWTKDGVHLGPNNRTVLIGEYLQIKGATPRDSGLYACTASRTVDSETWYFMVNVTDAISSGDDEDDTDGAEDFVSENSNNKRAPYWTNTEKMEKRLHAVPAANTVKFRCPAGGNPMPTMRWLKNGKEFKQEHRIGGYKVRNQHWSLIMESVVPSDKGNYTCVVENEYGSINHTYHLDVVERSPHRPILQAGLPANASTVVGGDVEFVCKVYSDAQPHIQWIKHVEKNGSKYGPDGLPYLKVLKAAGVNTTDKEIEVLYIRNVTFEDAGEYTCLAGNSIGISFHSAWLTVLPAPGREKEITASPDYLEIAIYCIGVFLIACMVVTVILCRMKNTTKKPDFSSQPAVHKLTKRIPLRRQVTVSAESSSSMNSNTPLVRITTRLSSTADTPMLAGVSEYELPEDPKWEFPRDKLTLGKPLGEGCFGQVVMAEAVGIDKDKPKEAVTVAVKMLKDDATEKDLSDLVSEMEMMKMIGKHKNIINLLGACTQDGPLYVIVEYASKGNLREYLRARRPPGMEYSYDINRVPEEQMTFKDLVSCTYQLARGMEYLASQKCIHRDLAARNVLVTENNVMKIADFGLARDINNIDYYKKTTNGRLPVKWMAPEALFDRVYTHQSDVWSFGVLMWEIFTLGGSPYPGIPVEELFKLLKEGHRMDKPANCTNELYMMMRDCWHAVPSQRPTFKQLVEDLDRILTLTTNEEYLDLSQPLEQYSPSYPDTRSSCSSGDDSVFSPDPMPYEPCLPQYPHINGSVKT

[4] = target: Fibroblast growth factor receptor 3 (Homo sapiens, UniProt P22607); test: Inhibition of FGFR3 (unknown origin) by Z'-LYTE kinase assay
Chain of Fibroblast growth factor receptor 3 (P22607 whole entry): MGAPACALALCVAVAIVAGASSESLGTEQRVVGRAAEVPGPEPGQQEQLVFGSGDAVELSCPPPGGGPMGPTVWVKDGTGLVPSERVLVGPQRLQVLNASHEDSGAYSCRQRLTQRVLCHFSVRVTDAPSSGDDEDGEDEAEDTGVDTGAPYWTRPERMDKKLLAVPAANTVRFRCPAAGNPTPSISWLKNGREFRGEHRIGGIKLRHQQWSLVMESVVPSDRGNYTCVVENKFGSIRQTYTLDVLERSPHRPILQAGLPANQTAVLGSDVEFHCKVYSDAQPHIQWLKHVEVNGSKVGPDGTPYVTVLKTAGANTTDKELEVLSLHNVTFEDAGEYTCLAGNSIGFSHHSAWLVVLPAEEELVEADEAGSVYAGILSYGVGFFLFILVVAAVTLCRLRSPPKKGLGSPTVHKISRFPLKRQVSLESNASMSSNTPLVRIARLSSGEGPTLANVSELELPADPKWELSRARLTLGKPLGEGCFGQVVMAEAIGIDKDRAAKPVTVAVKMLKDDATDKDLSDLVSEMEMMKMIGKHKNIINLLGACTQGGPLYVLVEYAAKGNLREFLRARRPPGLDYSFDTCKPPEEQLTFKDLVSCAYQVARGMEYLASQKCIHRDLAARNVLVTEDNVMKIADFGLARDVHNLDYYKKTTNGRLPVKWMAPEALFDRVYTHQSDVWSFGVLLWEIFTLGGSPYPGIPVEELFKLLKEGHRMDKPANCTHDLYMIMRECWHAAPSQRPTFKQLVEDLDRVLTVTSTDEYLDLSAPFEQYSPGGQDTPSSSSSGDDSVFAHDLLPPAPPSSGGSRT

[5] = target: Fibroblast growth factor receptor 4 (Homo sapiens, UniProt P22455); test: Inhibition of FGFR4 (unknown origin) by Z'-LYTE kinase assay
Chain of Fibroblast growth factor receptor 4 (P22455 whole entry): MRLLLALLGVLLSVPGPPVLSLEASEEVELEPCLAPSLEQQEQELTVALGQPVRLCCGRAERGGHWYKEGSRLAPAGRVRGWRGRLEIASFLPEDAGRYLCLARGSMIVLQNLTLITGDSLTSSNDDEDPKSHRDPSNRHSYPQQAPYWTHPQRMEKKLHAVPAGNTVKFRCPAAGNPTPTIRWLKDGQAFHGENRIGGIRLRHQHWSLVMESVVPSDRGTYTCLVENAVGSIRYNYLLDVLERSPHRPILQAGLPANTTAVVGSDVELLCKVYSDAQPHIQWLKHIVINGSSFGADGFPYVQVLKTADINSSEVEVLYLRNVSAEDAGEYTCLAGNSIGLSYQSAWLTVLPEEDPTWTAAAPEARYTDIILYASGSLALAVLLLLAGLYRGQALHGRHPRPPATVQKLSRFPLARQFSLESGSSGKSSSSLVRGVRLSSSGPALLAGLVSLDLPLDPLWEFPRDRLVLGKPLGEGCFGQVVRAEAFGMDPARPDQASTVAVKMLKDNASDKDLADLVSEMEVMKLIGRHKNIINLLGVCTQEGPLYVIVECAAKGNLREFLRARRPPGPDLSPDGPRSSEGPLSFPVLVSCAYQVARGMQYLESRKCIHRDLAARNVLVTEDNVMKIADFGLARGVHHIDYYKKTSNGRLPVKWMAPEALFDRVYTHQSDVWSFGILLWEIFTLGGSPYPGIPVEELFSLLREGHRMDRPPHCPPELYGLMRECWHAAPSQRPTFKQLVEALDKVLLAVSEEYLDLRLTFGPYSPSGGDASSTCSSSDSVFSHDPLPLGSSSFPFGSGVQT

Hep 3B2 [6] = test: Antiproliferative activity against FGF19 amplified human Hep3B cells assessed as inhibition of cell growth by SRB assay
[7] = Antiproliferative activity against FGF19 amplified human JHH7 cells assessed as inhibition of cell growth by SRB assay
Huh-7 [8] = test: Antitumor activity against human Huh-7 cells xenografted in female BALB/c nude mouse assessed as reduction in tumor volume at 100 mg/kg, po administered twice daily for 15 days; format: functional, organism-based; details: time 15.0 day
[9] = Toxicity in female BALB/c nude mouse xenografted with human Huh-7 cells assessed as effect on body weight at 100 mg/kg, po administered twice daily for 15 days; format: organism-based; details: in vivo, 360 h, time 15 day
[10] = Toxicity in female BALB/c nude mouse xenografted with human Huh-7 cells assessed as clinical signs at 100 mg/kg, po administered twice daily for 15 days; format: organism-based; details: in vivo, 360 h, time 15 day
Hep 3B2 [11] = test: Growth inhibition of FGF19 amplified and FGFR4 overexpressing human Hep3B cells by SRB assay; format: functional
Huh-7 [12] = test: Growth inhibition of FGF19 amplified and FGFR4 overexpressing human Huh-7 cells by SRB assay; format: functional
[13] = Growth inhibition of FGF19 amplified and FGFR4 overexpressing human JHH7 cells by SRB assay; format: functional
SNU-387 = test: Growth inhibition of human SNU-387 cells by SRB assay; format: functional
HepG2 = test: Growth inhibition of human HepG2 cells by SRB assay; format: functional
PLC-PRF-5 = test: Growth inhibition of human PLCPRF5 cells by SRB assay; format: functional
RT-112 = test: Growth inhibition of FGFR3 overexpressing human RT-112 cells by SRB assay; format: functional
[14] = Growth inhibition of human HS27 cells by SRB assay; format: toxicity, cell-based
[15] = target: T1, Fibroblast growth factor receptor 1; test: Inhibition of FGFR1 (unknown origin) at 1 uM relative to control
Target sequence in this assay (P11362 22-822 limits assumed): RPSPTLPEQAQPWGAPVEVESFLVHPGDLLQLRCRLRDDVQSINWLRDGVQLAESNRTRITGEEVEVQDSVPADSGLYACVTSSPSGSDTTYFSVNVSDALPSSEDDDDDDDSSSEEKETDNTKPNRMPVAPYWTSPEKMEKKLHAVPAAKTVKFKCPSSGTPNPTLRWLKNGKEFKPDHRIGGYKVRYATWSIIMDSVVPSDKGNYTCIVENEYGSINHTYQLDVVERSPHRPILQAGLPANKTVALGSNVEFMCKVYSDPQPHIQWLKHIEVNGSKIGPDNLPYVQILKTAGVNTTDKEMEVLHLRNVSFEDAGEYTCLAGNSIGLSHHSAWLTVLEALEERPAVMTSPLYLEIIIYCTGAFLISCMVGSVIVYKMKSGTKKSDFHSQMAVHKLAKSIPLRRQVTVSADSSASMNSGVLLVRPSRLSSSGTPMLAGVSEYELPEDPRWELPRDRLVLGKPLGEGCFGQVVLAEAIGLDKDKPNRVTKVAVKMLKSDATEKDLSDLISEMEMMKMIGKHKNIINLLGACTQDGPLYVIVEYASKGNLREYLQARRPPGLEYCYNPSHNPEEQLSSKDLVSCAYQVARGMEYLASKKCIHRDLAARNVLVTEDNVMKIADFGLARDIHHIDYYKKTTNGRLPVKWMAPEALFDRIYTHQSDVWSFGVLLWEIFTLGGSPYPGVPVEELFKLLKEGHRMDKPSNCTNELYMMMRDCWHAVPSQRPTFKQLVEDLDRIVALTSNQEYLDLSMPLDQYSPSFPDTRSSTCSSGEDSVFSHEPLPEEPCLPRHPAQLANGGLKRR

[16] = target: T2, Fibroblast growth factor receptor 2; test: Inhibition of FGFR2 (unknown origin) at 1 uM relative to control
Target sequence in this assay (P21802 22-821 limits assumed): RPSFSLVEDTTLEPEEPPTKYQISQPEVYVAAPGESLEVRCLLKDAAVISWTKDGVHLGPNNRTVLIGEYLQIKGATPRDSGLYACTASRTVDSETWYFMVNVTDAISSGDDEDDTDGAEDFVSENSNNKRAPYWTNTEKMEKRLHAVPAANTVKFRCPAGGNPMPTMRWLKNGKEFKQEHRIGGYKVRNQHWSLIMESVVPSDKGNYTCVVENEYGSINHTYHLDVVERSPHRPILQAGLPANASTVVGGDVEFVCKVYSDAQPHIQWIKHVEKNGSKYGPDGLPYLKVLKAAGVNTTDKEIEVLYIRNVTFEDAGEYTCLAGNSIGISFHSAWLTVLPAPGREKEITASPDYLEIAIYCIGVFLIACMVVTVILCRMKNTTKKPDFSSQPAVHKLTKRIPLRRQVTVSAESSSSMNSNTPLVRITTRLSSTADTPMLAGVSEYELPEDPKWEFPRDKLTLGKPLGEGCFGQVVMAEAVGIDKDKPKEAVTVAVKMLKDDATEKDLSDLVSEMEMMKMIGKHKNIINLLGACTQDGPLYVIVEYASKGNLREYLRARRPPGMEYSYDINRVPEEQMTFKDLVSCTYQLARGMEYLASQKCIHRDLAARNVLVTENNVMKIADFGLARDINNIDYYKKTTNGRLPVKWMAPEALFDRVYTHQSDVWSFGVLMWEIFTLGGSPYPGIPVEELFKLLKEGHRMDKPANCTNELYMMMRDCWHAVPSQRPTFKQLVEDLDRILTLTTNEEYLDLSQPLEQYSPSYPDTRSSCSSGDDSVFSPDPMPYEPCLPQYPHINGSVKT

[17] = AUC (0 to 24 hrs) in ICR mouse at 5 mg/kg, iv by LC-MS/MS analysis; format: ADME, organism-based; details: in vivo
[18] = Cmax in ICR mouse at 5 mg/kg, iv by LC-MS/MS analysis; format: ADME, organism-based; details: in vivo
[19] = Half-life in ICR mouse at 5 mg/kg, iv by LC-MS/MS analysis; format: ADME, organism-based; details: in vivo
[20] = AUC (0 to 24 hrs) in ICR mouse at 50 mg/kg, po measured after 24 hrs by LC-MS/MS analysis; format: ADME, organism-based; details: in vivo
[21] = Cmax in ICR mouse at 50 mg/kg, po measured after 24 hrs by LC-MS/MS analysis; format: ADME, organism-based; details: in vivo
[22] = Tmax in ICR mouse at 50 mg/kg, po measured after 24 hrs by LC-MS/MS analysis; format: ADME, organism-based; details: in vivo
[23] = Half-life in ICR mouse at 50 mg/kg, po measured after 24 hrs by LC-MS/MS analysis; format: ADME, organism-based; details: in vivo
[24] = Oral bioavailability in ICR mouse at 50 mg/kg measured after 24 hrs by LC-MS/MS analysis; format: ADME, organism-based; details: in vivo
[25] = AUC (0 to 24 hrs) in ICR mouse at 100 mg/kg, po measured after 24 hrs by LC-MS/MS analysis; format: ADME, organism-based; details: in vivo
[26] = Cmax in ICR mouse at 100 mg/kg, po measured after 24 hrs by LC-MS/MS analysis; format: ADME, organism-based; details: in vivo
[27] = Tmax in ICR mouse at 100 mg/kg, po measured after 24 hrs by LC-MS/MS analysis; format: ADME, organism-based; details: in vivo
[28] = Half-life in ICR mouse at 100 mg/kg, po measured after 24 hrs by LC-MS/MS analysis; format: ADME, organism-based; details: in vivo
[29] = Oral bioavailability in ICR mouse at 100 mg/kg measured after 24 hrs by LC-MS/MS analysis; format: ADME, organism-based; details: in vivo
[30] = AUC (0 to 24 hrs) in ICR mouse at 200 mg/kg, po measured after 48 hrs by LC-MS/MS analysis; format: ADME, organism-based; details: in vivo
[31] = Cmax in ICR mouse at 200 mg/kg, po measured after 48 hrs by LC-MS/MS analysis; format: ADME, organism-based; details: in vivo
[32] = Tmax in ICR mouse at 200 mg/kg, po measured after 48 hrs by LC-MS/MS analysis; format: ADME, organism-based; details: in vivo
[33] = Half-life in ICR mouse at 200 mg/kg, po measured after 48 hrs by LC-MS/MS analysis; format: ADME, organism-based; details: in vivo
[34] = Oral bioavailability in ICR mouse at 200 mg/kg measured after 48 hrs by LC-MS/MS analysis; format: ADME, organism-based; details: in vivo
Hep 3B2 [35] = test: Antitumor activity against human Hep3B cells xenografted in female BALB/c nude ectopic mouse assessed as reduction in tumor volume at 100 mg/kg, po administered twice daily for 15 days; format: functional, organism-based; details: time 15.0 day
Hep 3B-Luc [36] = test: Antitumor activity against human Hep 3B-Luc cells xenografted in female BALB/c nude mouse assessed as reduction in liver tumor volume at 100 mg/kg, po administered once daily for 7 weeks and measured within 35 days by bioluminescence imaging; format: functional, organism-based; details: time <= 35.0 day
Hep 3B-Luc [37] = test: Antitumor activity against human Hep 3B-Luc cells xenografted in female BALB/c nude mouse assessed as reduction in liver tumor volume at 100 mg/kg, po administered once daily for 7 weeks and measured after 119 days by bioluminescence imaging; format: functional, organism-based; details: time 119.0 day
[38] = Antitumor activity against human Hep 3B-Luc cells xenografted in female BALB/c nude mouse assessed as survival at 100 mg/kg, po administered once daily for 7 weeks and measured after 119 days relative to control; format: functional; details: 2856 h, time 119 day

## C=CC(=O)Nc1cc(C)ccc1Nc1cc2cnc(-c3c(Cl)c(OC)cc(OC)c3Cl)cc2cn1
Huh-7 [1]
  IC50: 125 nM

## C=CC(=O)Nc1ccccc1Nc1cc2cnc(-c3c(Cl)c(OC)cc(OC)c3Cl)cc2cn1
Huh-7 [1]
  IC50: 23 nM
[2]
  IC50: 506 nM
[3]
  IC50: 281 nM
[4]
  IC50: 4630 nM

## C=CC(=O)Nc1cc(N2CCOCC2)ccc1Nc1cc2cnc(-c3c(Cl)c(OC)cc(OC)c3Cl)cc2cn1
Huh-7 [1]
  IC50: 80 nM

## C=CC(=O)Nc1ccccc1Nc1cc2cnc(-c3c(F)c(OC)cc(OC)c3F)cc2cn1
Huh-7 [1]
  IC50: 25 nM

## C=CC(=O)Nc1ccccc1Nc1cc2c(C3CC3)nc(-c3c(Cl)c(OC)cc(OC)c3Cl)cc2cn1
Huh-7 [1]
  IC50: 67 nM

## C=CC(=O)Nc1ccccc1Nc1cc2c(-c3cccnc3)nc(-c3c(Cl)c(OC)cc(OC)c3Cl)cc2cn1
Huh-7 [1]
  IC50: 68 nM

## C=CC(=O)Nc1ccccc1Nc1cc2c(-c3ccco3)nc(-c3c(Cl)c(OC)cc(OC)c3Cl)cc2cn1
Huh-7 [1]
  IC50: 110 nM

## C=CC(=O)Nc1cccc(F)c1Nc1cc2cnc(-c3c(F)c(OC)cc(OC)c3F)cc2cn1
Huh-7 [1]
  IC50: 140 nM

## C=CC(=O)Nc1cccc(C)c1Nc1cc2cnc(-c3c(Cl)c(OC)cc(OC)c3Cl)cc2cn1
Huh-7 [1]
  IC50: 212 nM

## C=CC(=O)Nc1ccc(C)cc1Nc1cc2cnc(-c3c(Cl)c(OC)cc(OC)c3Cl)cc2cn1
Huh-7 [1]
  IC50: 37 nM

## C=CC(=O)N[C@H]1CCOC[C@H]1Nc1ncc2cc(-c3c(Cl)c(OC)cc(OC)c3Cl)ccc2n1 [FISOGATINIB]
Huh-7 [1]
  IC50: 81 nM
[5]
  IC50: 53 nM
[2]
  IC50: 1840 nM
[3]
  IC50: 2500 nM
[4]
  IC50: > 10000 nM
Hep 3B2 [6]
  IC50: 122 nM
[7]
  IC50: 161 nM
Huh-7 [8]
  Activity: Active
[9]
  Activity: Non-Toxic
[10]
  Activity: Non-Toxic

## C=CC(=O)Nc1cccc(C)c1Nc1ncc2cc(-c3c(Cl)c(OC)cc(OC)c3Cl)ccc2n1
Huh-7 [1]
  IC50: 191 nM

## C=CC(=O)Nc1cc2c(cc1Nc1cc3cnc(-c4c(Cl)c(OC)cc(OC)c4Cl)cc3cn1)CCC2
Huh-7 [1]
  IC50: 113 nM

## C=CC(=O)Nc1cccc(F)c1Nc1cc2cnc(-c3c(Cl)c(OC)cc(OC)c3Cl)cc2cn1
Huh-7 [1]
  IC50: 220 nM

## C=CC(=O)Nc1ccccc1Nc1cc2c(-c3ccccc3)nc(-c3c(Cl)c(OC)cc(OC)c3Cl)cc2cn1
Huh-7 [1]
  IC50: 69 nM

## C=CC(=O)Nc1ccccc1Nc1cc2c(CC)nc(-c3c(Cl)c(OC)cc(OC)c3Cl)cc2cn1
Huh-7 [1]
  IC50: 36 nM

## C=CC(=O)Nc1ccccc1Nc1cc2c(-c3ccc[nH]3)nc(-c3c(Cl)c(OC)cc(OC)c3Cl)cc2cn1
Huh-7 [1]
  IC50: 61 nM

## C=CC(=O)Nc1ccc(N2CCN(CC)CC2)c(F)c1Nc1cc2cnc(-c3c(F)c(OC)cc(OC)c3F)cc2cn1
Huh-7 [1]
  IC50: 137 nM

## C=CC(=O)Nc1ccccc1Nc1cc2c(C)nc(-c3c(Cl)c(OC)cc(OC)c3Cl)cc2cn1
Huh-7 [1]
  IC50: 19 nM
[2]
  IC50: 1260 nM
[3]
  IC50: 3270 nM
[4]
  IC50: > 10000 nM
Hep 3B2 [6]
  IC50: 16 nM
[7]
  IC50: 33 nM
Hep 3B2 [11]
  GI50: 16 nM
Huh-7 [12]
  GI50: 16 nM
[13]
  GI50: 16 nM
SNU-387
  GI50: 251 nM
HepG2
  GI50: 335 nM
PLC-PRF-5
  GI50: 598 nM
RT-112
  GI50: 151 nM
[14]
  GI50: 913 nM
[15]
  inhibition: > 85%
[16]
  inhibition: > 85%
[17]
  AUC(0-t): 4810 ng·h/mL
[18]
  Cmax: 8140 ng/mL
[19]
  half-life: 1.7 h
[20]
  AUC(0-t) at 24 h: 27300 ng·h/mL
[21]
  Cmax: 11200 ng/mL
[22]
  Tmax: 1 h
[23]
  half-life: 4.4 h
[24]
  bioavailability: 56.8%
[25]
  AUC(0-t) at 24 h: 59500 ng·h/mL
[26]
  Cmax: 24600 ng/mL
[27]
  Tmax: 0.5 h
[28]
  half-life: 3.9 h
[29]
  bioavailability: 61.9%
[30]
  AUC(0-t) at 48 h: 102000 ng·h/mL
[31]
  Cmax: 40700 ng/mL
[32]
  Tmax: 1 h
[33]
  half-life: 8.6 h
[34]
  bioavailability: 53.2%
Huh-7 [8]
  Activity: Active
[9]
  Activity: Non-Toxic
[10]
  Activity: Non-Toxic
Hep 3B2 [35]
  Activity: Active
Hep 3B-Luc [36]
  Activity: Active
Hep 3B-Luc [37]
  Activity: Active
[38]
  survival at 100 mg/kg: > 90%

## C=CC(=O)Nc1ccccc1Nc1cc2c(-c3cnn(C)c3)nc(-c3c(Cl)c(OC)cc(OC)c3Cl)cc2cn1
Huh-7 [1]
  IC50: 50 nM
